This note sets out measurements from ChEMBL document CHEMBL1157539, “Thousands of chemical starting points for antimalarial lead identification” (Nature, 2010).

This test relates to Plasmodium falciparum. In words: GSK_TCMDC: Inhibition of Plasmodium falciparum 3D7 in whole erythrocytes, using parasite LDH activity as an index of growth. In kind it is functional, organism-based. Conditions: Plasmodium falciparum, 3D7.
In turn, `CC(C)N1CCC(N(Cc2ccc(-c3ccc(C(F)(F)F)cc3)cc2)C(=O)Cn2c(SCc3cccc(F)c3F)nc(=O)c3ccccc32)CC1` yielded an XC50 of 1050 nM.
Next, `Cc1cc(CNCCCCCNCc2ccc(Cl)cc2)ccc1O`: 706 nM.
Next, `O=C(NCCCCN1CCC(c2nc3ccccc3s2)CC1)c1cc2ccccc2[nH]1`: 1020 nM.
`O=C(/C=C/c1ccc(Cl)c(Cl)c1)N1CCC(CCN2CCC(c3c[nH]c4cnccc34)CC2)CC1` showed an XC50 of 119 nM.
To `O=C(Nc1ccc(C(=O)OCC2CCCN3CCCCC23)cc1)c1ccc(Cl)c(Cl)c1` (stereo not given) belongs 721 nM.
For `N#Cc1ccc(Cn2ccc3c4c(N)nc(N)nc4ccc32)cc1`, the XC50 worked out at 3.29 nM.
To `N#Cc1cccc(C(=O)Nc2cccc(-c3ccc(C(=O)NCCCN4CCOCC4)cc3)c2)c1` belongs 749 nM; to `Cc1sc2ncnc(Sc3nnc(N)s3)c2c1C`, 399 nM; to `N#Cc1cc([N+](=O)[O-])ccc1-n1nc(-c2cccc(Cl)c2)n(Cc2ccco2)c1=S`, 196 nM.
`Cc1nc(C)n(CC(=O)Nc2cccc(-c3cccc(-c4nc5cc(C(F)(F)F)ccc5[nH]4)c3)c2)n1` returned an XC50 of 761 nM.
`COc1cc2nc(N(C)C3CCN(Cc4ccccc4)CC3)nc(N)c2cc1OC` returned an XC50 of 334 nM.
The molecule `COc1ccc(NC(=O)C2c3ccccc3C(=O)N(C3CCCC3)C2c2cccs2)cc1` (stereo not given) displayed an XC50 of 1710 nM.
To `CC1CCN(CC[C@H]2CCCN2S(=O)(=O)c2cccc(NC(=O)Nc3ccc(C(F)(F)F)cc3)c2)CC1` belongs 722 nM; to `OC(CNCc1ccco1)Cn1c2ccc(Br)cc2c2cc(Br)ccc21` (stereo not given), 1070 nM; to `CC(C)(C)c1ccc(N2C(N)=NC(N)=NC2(C)C)cc1Cl`, 6.56 nM.
`CC(=O)C1=NN(c2ccc(C)cc2)C(c2cccs2)N1c1ccccc1` (stereo not given) showed an XC50 of 338 nM.
On to `CN(C)Cc1ccc2cc(NC(=O)c3ccc(-c4ccc(Cl)cc4)cc3)ccc2c1`, for which the XC50 is 1340 nM.
To `CN/C(=N\O)NCCN(C)C` belongs 1180 nM; to `COc1ccc2ccccc2c1CCCCN1CCN(CC(c2ccc(F)cc2)N2CCN(C3CCCC3)CC2)CC1` (stereo not given), 772 nM.
The molecule `O=C(Nc1ccc(Cl)cc1)c1cc(Cl)ccc1NC(=O)C1CCc2ccccc2O1` (stereo not given) displayed an XC50 of 1790 nM.
To `OC(CN1CCN(Cc2ccccc2)CC1)Cn1c(-c2ccccc2)c(-c2ccccc2)c2ccccc21` (stereo not given) belongs 711 nM; to `O=C(N[C@@H](CC1CCCCC1)C(=O)NCCN1CCCCC1)c1ccc(O)c(-c2cccc(C(F)(F)F)c2)c1`, 831 nM.
Next, `Cc1cc(N(C)C2CCN(C)CC2)nc(Nc2ccc(Cl)cc2)n1`: 290 nM.
Next, `CO/C(=C\C=C\c1cc2cc(Cl)c(Cl)cc2[nH]1)C(=O)NCCCN1CCC(c2ccccc2)CC1`: 906 nM.
`CCOc1ccc2c(=NN=Cc3ccccc3F)cc(C)[nH]c2c1` returned an XC50 of 676 nM.
`O=C(/C=C/c1ccc(Cl)c(Cl)c1)N1CCC2CC(N3CCC(c4c[nH]c5ccccc45)CC3)CCC2C1` (stereo not given) came in with an XC50 of 171 nM.
To `CN1CCN(CC(=O)Nc2ccc(-c3csc(-c4nc5ccccc5[nH]4)c3)cc2)CC1` belongs 1560 nM.
Next, `CCNc1cc(C(=O)N[C@@H](Cc2ccccc2)[C@H](O)CNC2CCCCC2)cc(N2CCCCS2(=O)=O)c1`: 170 nM; `Brc1cc(CNCCCNc2nc3ccccc3[nH]2)sc1Br`: 221 nM; `C[C@H](Cc1ccc(OCCCCCCOc2ccccc2)cc1)NC[C@@H](O)c1cc(Br)no1`: 883 nM.
Next, `CC[C@H]1CN(Cc2ccco2)CC[C@H]1CCCc1ccnc2ccc(O)cc12`: 1270 nM; `CCC(CN1C(=O)C(c2ccccc2)(c2ccccc2)N=C1N)c1ccccc1` (stereo not given): 136 nM; `Cc1nn(C2CCS(=O)(=O)C2)c(C)c1C1Nc2ccccc2C(=O)N1Cc1ccc2c(c1)OCO2` (stereo not given): 511 nM.
Turning to `CCN(CC)CCCC(C)N=c1cc(C=Cc2ccc([N+](=O)[O-])cc2)[nH]c2ccc(OC)cc12` (stereo not given), the XC50 is 574 nM.
Next, `CCn1ccc2c(N3CCCCS3(=O)=O)cc(C(=O)N[C@@H](Cc3ccccc3)[C@H](O)CNC(C)(C)CCCC(C)C)cc21`: 418 nM; `O=C(Nc1ccc(OC2CCN(Cc3ccc(F)cc3)CC2)c(Cl)c1)c1ccc(F)cc1`: 188 nM; `CC(C)(C)OC(=O)[C@H](CC(N)=O)NC(=O)c1ccc(-c2ccc(-c3nc4cc(C(F)(F)F)ccc4[nH]3)s2)cc1`: 271 nM.
Next, `O=C(Nc1ccc(Cn2ncc(N3CCCNCC3)c(Cl)c2=O)cc1)Nc1ccc(-c2ccccc2)cc1`: 797 nM.
Next, `C=C[C@]1(C)C[C@@H](OC(=O)NC(=O)C2CCN(C(=O)CSc3ccccc3)CC2)[C@]2(C)[C@H](C)CC[C@]3(CCC(=O)[C@H]32)[C@@H](C)[C@@H]1O`: 1010 nM.
For `O=C(NC1CCC(CN2CCC(c3c[nH]c4ccccc34)CC2)CC1)c1cc(-c2ccccc2)c(C(F)(F)F)s1` (stereo not given), the XC50 amounted to 167 nM.
On to `O=C(Nc1ccc([N+](=O)[O-])cc1)Nc1nc2ccc(Cl)cc2s1`, for which the XC50 came to 837 nM.
`O=C(C=Cc1cccs1)Nc1ccc(-c2nc3ccccc3[nH]2)cc1` returned an XC50 of 1140 nM.
Next, `CC[C@H]1CN2CC[C@H]1C[C@H]2[C@H](O)c1cc(Cl)nc2ccc(OC)cc12`: 578 nM; `COc1ccc2nccc([C@@H](O)CN3CCC(NCc4ccc5c(c4)NC(=O)CS5)CC3)c2c1`: 567 nM.
Next, `CCOc1ccccc1NC(=O)Nc1ccc2c(c1)CCN(C1CCC1)CC2`: 1110 nM; `CN1CCN(c2ccnc3ccc(NC(=O)Nc4ccccc4Br)cc23)CC1`: 372 nM; `COc1cc2nc(-c3ccc(Br)cc3)cc(N)c2cc1OC`: 173 nM.
To `CC[C@H]1CN2CC[C@@H]1C[C@H]2[C@H](O)c1cc(-c2ccccc2)nc2ccc(O)cc12` belongs 189 nM; to `CC[C@H]1CN2CC[C@@H]1C[C@H]2[C@H](O)c1cc(N2CCC(O)(c3ccccc3)CC2)nc2ccc(OC)cc12`, 90 nM; to `CCCC(CNCc1cccc(OC(F)(F)F)c1)CNc1cc(=O)c2ccccc2[nH]1` (stereo not given), 556 nM.
Molecule `Cc1[nH]cc(Br)c(=O)c1-c1ccc(Oc2ccccc2)cc1` came in with an XC50 of 678 nM.
To `CN1CCN(c2ccc(Nc3c(C(N)=O)cnc4cc(-c5ccoc5)ccc34)cc2)CC1` belongs 806 nM; to `COc1ccc(NC(=O)CCNc2cc(C)nc(NCCc3ccc(F)cc3)n2)cc1`, 848 nM; to `CN1CCN(Cc2ccc(-c3ccc4ncnc(Nc5ccc(OCc6ccccc6)cc5)c4c3)o2)CC1`, 689 nM.
To `CCOc1ccc(Br)cc1/C=C/C(=O)Nc1ccc(C2CCN(C)CC2)cc1` belongs 450 nM; to `N#Cc1cccc(NC(=O)Nc2ccc(CC(=O)N3CCc4cc(Cl)c(N5CCN(C/C=C/c6ccccc6)CC5)cc43)cc2)c1`, 875 nM.
To `N#Cc1ccc(-c2cnc3ccc(NCCc4cccnc4)nn23)cc1` belongs 255 nM.
The molecule `O=C(NC1CCCCN(Cc2ccccc2O)C1)c1ccc(Cl)c(Cl)c1` (stereo not given) came in with an XC50 of 747 nM.
Next, `CSc1nc2nc(C)c(Cc3cccc(F)c3)c(C)n2n1`: 904 nM; `COc1ccc(CNCCc2cccs2)cc1-c1ccc(OC)c(S(=O)(=O)NCCN2CCCC2)c1`: 1410 nM; `Cc1cc(NCCC(=O)Nc2ccccc2)nc(NCCc2cccnc2)n1`: 1240 nM.
As to `C=C[C@]1(C)C[C@@H](OC(=O)c2cncn(COC)c2=O)[C@]2(C)[C@H](C)CC[C@]3(CCC(=O)[C@H]32)[C@@H](C)[C@@H]1O`, the XC50 is 878 nM.
As to `Cc1nc(-c2cccc3c(NC(=O)N4CCc5cc6nccc(N7CCN(C)CC7)c6cc54)cccc23)no1`, the XC50 is 760 nM.
`N=C1NC(c2ccccc2)(c2ccccc2)C(=O)N1CC=Cc1ccccc1`: the XC50 was found to be 598 nM.
The molecule `CC1CCCCN1Cc1cccc(-c2c[nH]c3nc(NC4CCCC4)ncc23)c1` (stereo not given) yielded an XC50 of 1310 nM.
As for `O=C1COC2(CN1C1CCN(Cc3ccc(O)cc3Cl)C1)c1ccccc1-c1ccccc12` (stereo not given), the XC50 is 1330 nM.
To `O=C(Nc1cc(C(F)(F)F)ccc1Cl)c1ccc(Cn2cc(Br)cn2)cc1` belongs 1350 nM.
To `CC=CC(=O)N1CCN(c2nccc(-c3ccc(C(C)(C)C)cc3)n2)CC1` belongs 1080 nM; to `COc1ccc(-c2ccc(CNCc3ccsc3)cc2)cc1S(=O)(=O)NCCN1CCCC1`, 794 nM.
Next, `COc1ccc(-c2csc3ncnc(Cl)c23)cc1`: 781 nM; `COc1cc(C2=NN(S(=O)(=O)c3c(Cl)cc(Cl)cc3Cl)CCCC2)ccc1Cl`: 291 nM; `OC(c1nnc(S)n1-c1ccccc1)C(O)c1nnc(S)n1-c1ccccc1` (stereo not given): 741 nM.
Take `CC(C)(C)CCN1CCC(CNC(=O)c2cc(-c3cccc(Cl)c3)cs2)C1` (stereo not given): the XC50 is 819 nM.
In turn, `CCCCCCCN(CCCCCCC)CCCC(=O)Nc1ccnc2ccc(OC)cc12` came in with an XC50 of 154 nM.
To `COc1ccccc1-c1cccc(CNC2CCN(CC3Cn4c(=O)ccc5ccc(F)c3c54)CC2)c1` (stereo not given) belongs 1380 nM.
Molecule `CCC[C@@H]([C@@H](CC1CCC(C)CC1)C(=O)N[C@@H](CO)C(=O)Nc1nccs1)N(O)C=O` (stereo not given in full) showed an XC50 of 325 nM.
To `Cc1ccc(Cc2c[nH]c(NCCSCc3ccc(CN(C)C)s3)nc2=O)cn1` belongs 860 nM; to `NCCCCNc1cc(-c2ccnc(Nc3cccc(Cl)c3)n2)ccn1`, 284 nM.
As for `CN(C)c1ccc(-c2nnc(Sc3ccc(C#N)c([N+](=O)[O-])c3)n2Cc2ccco2)cc1`, the XC50 stood at 854 nM.
To `Cc1cccc2nc(-c3ccc(-c4ccc(CN5CCCC(N)C5)cc4)s3)[nH]c12` (stereo not given) belongs 382 nM; to `CCCN(c1ccc(C(F)(F)F)cc1[N+](=O)[O-])S(=O)(=O)C(c1ccccc1)c1ccc(C(F)(F)F)cc1[N+](=O)[O-]` (stereo not given), 1220 nM; to `COc1cc2c(cc1S(=O)(=O)c1ccc(NC(=O)Nc3ccc(F)cc3)cc1)CCN(C)CC2`, 473 nM.
To `CC(Cc1ccc(NC(=O)c2ccc(CNCCc3ccccc3)cc2)cc1)NCCc1cccc(Cl)c1` (stereo not given) belongs 353 nM; to `CCN(CCCN1CCCCC1)c1cc(C)nc(Nc2ccc(C(C)C)cc2)n1`, 543 nM.
To `Cc1[nH]c2ccccc2c1C(=O)CSc1nn(-c2ccccc2)c(=S)s1` belongs 699 nM.
